Test results published in patent publication US5872104A, “Combinations and methods for reducing antimicrobial resistance” (Oridigm Corporation, priority 1994, dated 1999).
≈ marks a conversion by molar mass, not a printed value. Where two headings read alike, the source gives them in different places.

What was measured:
[1] = tested on: transfer and ribosomal RNA (tRNA and rRNA) methylases; details: cited from earlier work
Mycobacterium leprae = details: 12 μg/mouse every 12 hours, 15 doses, local; cited from earlier work
[2] = tested on: S-Adenosylmethionine Decarboxylase (SAM-DC); details: cited from earlier work
[3] = tested on: RNA methyltransferase from Streptomyces antibioticus; details: 100 μM; cited from earlier work
RNA methylation = details: cited from earlier work
[4] = tested on: cell transformation by Rous sarcoma virus; details: concentrations not toxic to normal cells; cited from earlier work
[5] = tested on: S. aureus 27660 (erythromycin resistant); format: cell-based
polyamine biosynthesis = details: cited from earlier work
methyl transfer from SAM = details: cited from earlier work
[6] = tested on: SAM-dependent methylations; details: cited from earlier work
[7] = tested on: porcine liver tRNA methyltransferase; details: cited from earlier work
[8] = sc., rats; cited from earlier work
[9] = tested on: ornithine decarboxylase (ODC); details: cited from earlier work
Trypanosomiasis = details: cited from earlier work
[10] = tested on: N- and O-methylation of mRNA; details: 100 μM; cited from earlier work
[11] = tested on: vaccinia virion mRNA(guanine-7)methyltransferase; details: 100 μM; cited from earlier work
RNA methyltransferase = details: cited from earlier work
hamster liver SAHH = details: cited from earlier work
human liver SAHH = details: cited from earlier work
[12] = tested on: Staphylococcus aureus, methicillin susceptible; details: in µg/mL; cited from earlier work
[13] = tested on: Staphylococcus aureus, methicillin resistant; details: cited from earlier work
[14] = tested on: Streptococcus pyogenes (group A), erythromycin susceptible; details: cited from earlier work
Streptococcus pneumoniae = details: in µg/mL; cited from earlier work
Streptococcus bovis = details: cited from earlier work
[15] = tested on: E. faecalis (Erythromycin susceptible); details: cited from earlier work
[16] = tested on: E. faecalis (Erythromycin resistant); details: cited from earlier work
Viridans streptococci = details: cited from earlier work
[17] = tested on: Coagulase-negative staphylococci, methicillin resistant; details: cited from earlier work
Listeria monocytogenes = details: in µg/mL; cited from earlier work
Haemophilus influenzae = details: in µg/mL; cited from earlier work
Moraxella catarrhalis = details: in µg/mL; cited from earlier work
Neisseria gonorrhoeae = details: in µg/mL; cited from earlier work
N. meningitidis = details: in µg/mL; cited from earlier work
Pasteurella multocida = details: cited from earlier work
Bordetella pertussis = details: in µg/mL; cited from earlier work
Legionella pneumophila = details: in µg/mL; cited from earlier work
Campylobacter species = details: in µg/mL; cited from earlier work
[18] = tested on: Gram-positive cocci (peptococcus, peptostreptococcus); details: anaerobes; cited from earlier work
Bacteroides fragilis = details: anaerobes; in µg/mL; cited from earlier work
Clostridium perfringens = details: anaerobes; in µg/mL; cited from earlier work
Chlamydia trachomatis = details: in µg/mL; cited from earlier work
Mycoplasma pneumoniae = details: in µg/mL; cited from earlier work
[19] = cited from earlier work
[20] = tested on: vaccinia virion mRNA(nucleoside-2'-)methyltransferase; details: cited from earlier work
tRNA methylases = details: cited from earlier work
poly(A)-RNA methylation = details: inhibitor level that still permitted cell growth; cited from earlier work
[21] = not told; cited from earlier work
[22] = tested on: nucleosidase enzymes responsible for SAH metabolism; details: cited from earlier work
[23] = tested on: S. aureus 6538 (erythromycin susceptible); assay: Erythromycin disk susceptibility with inhibitor pre-mixed in agar; format: cell-based; details: inhibitor pre-mixed with BHIA or TSA, with erythromycin (FIG. 2)
[24] = tested on: S. aureus 27660 (erythromycin resistant); assay: Erythromycin disc susceptibility after pre-incubation with inhibitor discs (second procedure); details: 310 μg/disc, pre-incubation 0-5 hours, 18 hours incubation (FIG. 4)
[25] = dogs; cited from earlier work
SAH hydrolase = details: cited from earlier work
[26] = tested on: vesicular stomatitis virus; details: primary rabbit kidney cells; cited from earlier work
human retrovirus = details: cited from earlier work
malarial growth = details: read-out: ED50 (the source's name); cited from earlier work
vaccinia virus = details: cited from earlier work
arginine decarboxylase = details: cited from earlier work

polyinosinate
combination with adenine and adenosine [1]: particularly effective in combination with adenine and adenosine | inhibition of tRNA and rRNA methylases [1]: inhibits transfer and ribosomal RNA (tRNA and rRNA) methylases | inhibition by base ([1]; methylases of individual bases): inhibition of adenine methylases occurred to the greatest extent and guanine methylases to the least | multiplication of M. leprae (Mycobacterium leprae): inhibit multiplication of Mycobacterium leprae

CN(C/C=C\CN)C[C@H]1O[C@@H](n2cnc3c(N)ncnc32)[C@H](O)[C@@H]1O [AbeAdo, 5'-{[(Z)-4-amino-2-butenyl]methylamino}-5'-deoxyadenosine]
SAM-DC inhibition [2]: powerful irreversible inhibitors of SAM-DC

CC(C)CSC[C@H]1O[C@@H](n2cnc3c(N)ncnc32)[C@H](O)[C@@H]1O [SIBA, 5'-deoxy-5'-S-isobutyl-adenosine]
inhibition [3]: 55% | inhibition of RNA methylation (RNA methylation; 1 mM): ~ 65% | inhibition of methylation in whole cells (RNA methylation): strongly inhibit methylation in whole cells | methylation of eukaryotic mRNA (RNA methylation; especially that of the 5' cap): inhibits the methylation of eukaryotic mRNA | potency as inhibitor [4]: most potent

CSC[C@H]1O[C@@H](n2cnc3c(N)ncnc32)[C@H](O)[C@@H]1O [Methylthioadenosine, 5'-Deoxy-5'-(methylthio)adenosine]
enhanced killing with erythromycin ([5]; in combination with erythromycin): enhanced the killing | inhibition of spermine and spermidine synthesis (polyamine biosynthesis): inhibitor of spermine and spermidine synthesis | inhibition (methyl transfer from SAM): effective inhibitors | inhibition of SAM-dependent methylations [6]: inhibitor of several SAM-dependent methylations

NC(=O)c1cccnc1 [Nicotinamide]
inhibition of tRNA methyltransferase [7]: inhibition of porcine liver tRNA methyltransferase activity | LD50 [8]: 1.68 g/kg

NCCCC(N)(C(=O)O)C(F)F (stereo not shown) [DFMO, difluoromethylornithine]
ODC inhibition [9]: irreversible inhibitor of ornithine decarboxylase | clinical effectiveness (Trypanosomiasis; different dosage levels and modes of treatment): effective against Trypanosomiasis | safety (Trypanosomiasis; human, in vivo): safe and well tolerated and the side effects are reversible

Nc1nccc2c1ncn2[C@@H]1O[C@H](CO)[C@@H](O)[C@H]1O [3-deazaadenosine]
inhibition of N- and O-methylation of mRNA [10]: 31-83%

CNc1ncnc2c1ncn2[C@@H]1O[C@H](CSCC[C@H](N)C(=O)O)[C@@H](O)[C@H]1O [S-(N^6 -methyladenosyl)-L-homocysteine]
inhibition [11]: 85% | potency relative to SAH (RNA methyltransferase): nearly as potent an RNA methyltransferase inhibitor as SAH

Nc1ncnc2c1ncn2[C@@H]1O[C@H](CO)[C@@H](O)[C@H]1Cl [CLA, 2'-deoxy-2'-chloroadenosine]
inhibition (hamster liver SAHH): inhibitor | inhibition (human liver SAHH): inhibitor

CC[C@H]1OC(=O)[C@H](C)[C@@H](O[C@H]2C[C@@](C)(OC)[C@@H](O)[C@H](C)O2)[C@H](C)[C@@H](O[C@@H]2O[C@H](C)C[C@H](N(C)C)[C@H]2O)[C@](C)(O)C[C@@H](C)CN(C)[C@H](C)[C@@H](O)[C@]1(C)O [Azithromycin]
MIC90 [12]: 1.0 | MIC90 [13]: > 128 µg/mL | MIC90 [14]: 0.12 µg/mL (≈ 0.16 µM) | MIC90 (Streptococcus pneumoniae): 0.12 | MIC90 (Streptococcus bovis): 0.25 µg/mL (≈ 0.334 µM) | MIC90 [15]: 8 µg/mL (≈ 10.7 µM) | MIC90 [16]: > 64 µg/mL | MIC90 (Viridans streptococci): 16 µg/mL (≈ 21.4 µM) | MIC90 [17]: > 128 µg/mL | MIC90 (Listeria monocytogenes): 4.0 | MIC90 (Haemophilus influenzae): 1.0 | MIC90 (Moraxella catarrhalis): 0.5 | MIC90 (Neisseria gonorrhoeae): 0.15 | MIC90 (N. meningitidis): 0.12 | MIC90 (Pasteurella multocida): 0.5 µg/mL (≈ 0.668 µM) | MIC90 (Bordetella pertussis): 0.12 | MIC90 (Legionella pneumophila): 0.25-2.0 | MIC90 (Campylobacter species): 0.25 | MIC90 [18]: 2 µg/mL (≈ 2.67 µM) | MIC90 (Bacteroides fragilis): 8.0 | MIC90 (Clostridium perfringens): 1.0 | MIC90 (Chlamydia trachomatis): 0.12-0.25 | MIC90 (Mycoplasma pneumoniae): 0.001 | tissue half-life [19]: prolonged tissue half-life

Nc1ncnc2c1ccn2[C@@H]1O[C@H](CSCCC(N)C(=O)O)[C@@H](O)[C@H]1O (stereo partly shown) [STH, S-Tubercidinylhomocysteine]
inhibition [20]: particularly potent inhibitor | inhibition of tRNA methylases relative to SAH (tRNA methylases): retains the inhibitory potency of SAH on tRNA methylases | inhibition of poly(A)-RNA methylation (poly(A)-RNA methylation): Inhibition of cytoplasmic methylation | membrane permeation [21]: able to permeate cell membranes | susceptibility to nucleosidase [22]: not susceptible to the nucleosidase enzymes

CCSCC[C@H](N)C(=O)O [Ethionine]
increase in the size of the clear zone ([5]; inhibitor pre-mixed with BHIA or TSA, with erythromycin (FIG. 3)): increase in the size of the clear zone | increase in the size of the clear zone [23]: increase in the size of the clear zone | increase in clear zones relative to erythromycin alone [24]: Increases in clear zones were observed

CN(CCCNN)C[C@H]1O[C@@H](n2cnc3c(N)ncnc32)[C@H](O)[C@@H]1O [MHZPA, 5'-deoxy-5'-[(3-hydrazinopropyl)methylamino]adenosine]
SAM-DC inhibition [2]: powerful irreversible inhibitors of SAM-DC

Nc1ncnc2c1ncn2[C@@H]1O[C@H](CSCC[C@H](N)C(=O)O)[C@@H](O)[C@H]1O [S-Adenosylhomocysteine, S-adenosylhomocysteine]
inhibition [3]: 97% | inhibition (methyl transfer from SAM): effective inhibitors | uptake and excretion [25]: not taken up and excreted unchanged in urine

Nc1ncnc2c1ncn2[C@@H]1C=C(CO)[C@@H](O)[C@H]1O [NPA, neplanocin A]
Ki (SAH hydrolase; De Clercq & Cools (1985)): 2 nM | SAH hydrolase inhibition (SAH hydrolase): potent inhibitor of SAH hydrolase | minimum inhibitor concentration (50% reduction of cytopathogenicity) [26]: 0.018 µg/mL | effective inhibitory concentration (human retrovirus): ~0.2 µg/mL | IC50 (malarial growth): 3000 nM | inhibition of plaque formation (vaccinia virus; 0.5 μM): 84% | inhibition of plaque formation (vaccinia virus; 1 μM): 95% | toxicity to the host cells (vaccinia virus; 0.5 and 1 μM): little toxicity to the host cells

N=C(N)NCCCC(N)(C(=O)O)C(F)F (racemic) [DFMA, difluoromethylarginine]
arginine decarboxylase inhibition (arginine decarboxylase): irreversible inhibitor of ADC | arginine decarboxylase inhibition (arginine decarboxylase; listed as DL-α-(difluoromethyl)arginine): potent and irreversible inhibitor of bacterial ADC
